From patent US11000586B2, “Adjuvant composition, vaccine composition containing the same, and method for producing both of them” (TERUMO KABUSHIKI KAISHA, priority 2013, dated 2021)

Assays:
[1] = test system: IFNγ-secreting cells in the spleen; test: ELIspot method (IFNγ spots) after immunization of mice; assay type: in vivo, C57BL/6N mice; conditions: antigen OVA peptide; DLPC, deoxycholic acid (160 nmol), MPL content 0.227; 2×10^6 cells/well; FIG. 2
Description: (§1) Administration (100 μL/head) was performed by subcutaneous injection at one position on the back under anesthesia. The dose of the amphipathic substance was 100 nmol/head; the dose of the pH-sensitive compound was 10 to 640 nmol/head; MPL content was 0.0227 to 22.7 nmol/head; and the amount of the antigen was 3.2 to 400 μg/head. For evaluation of cell-mediated immunity, administration was performed once and the assay was performed seven days after administration. For evaluation of humoral immunity, administration was performed twice. The second administration was performed 14 days after the first administration, and assay was performed seven days after the second administration.
The mice were sacrificed on the seventh day after the last administration and had its spleen harvested. […] The number of cells was counted. […]
The ELIspot method was practiced by using the Mouse IFNγ ELISPOT Set. One day before cell inoculation, the 96-well ELIspot plate was allowed to adsorb the detection antibody attached to the kit, so that the plate was made ready for use. […]
Samples used for comparison include a solution of the peptide alone, a dispersion of the pH-sensitive carrier (DLPC-deoxycholic acid) and the peptide, and a solution of incomplete Freund's adjuvant (IFA) and peptide. […] The number of IFNγ-secreting cells in the spleen was counted, and the CTL induction was evaluated.

CD80 = test: Evaluation of stimulus to activate innate immune system: expression of CD80 in cultured mice spleen cells (flow cytometry); conditions: solution (5 μL) of sample added alone: peptide, OVA 800 μg/mL, DLPC 1000 nmol/mL, deoxycholic acid 1600 nmol/mL; FIG. 8(B)
Description: The evaluation of stimulus to activate innate immune system was performed as follows.
A spleen was harvested from C57BL/6N mice. The harvested spleen was injected with 500 μL of collagenase solution, 2 mg/mL (prepared with RPMI medium) followed by incubation at 37° C. for 30 minutes. The spleen was made into cell suspension by treatment with BD Falcon cell strainer. The cells underwent hemolysis with RBC lysis buffer, followed by washing with RPMI medium. The cells were dispersed into RPMI medium, and the number of cells was counted. The cells were used for the subsequent procedure.
The cells were inoculated into a 96-well dish such that 1.0×10^6 cells/100 μL. The cell dispersion was given 100 μL of RPMI medium containing a dispersion of different kind, followed by incubation overnight. These procedures were performed by using serum-free RPMI medium.
The cells were recovered and washed with BD stain buffer. Then, the cells underwent incubation together with Anti-CD11cFITC, 0.25 μg/100 μL (4° C. for 30 minutes), so that the cells were stained. After washing, the cells underwent again incubation with Anti-CD80PE, Anti-CD86PE, or Anti-CD40PE, 0.25 μg/100 μL (4° C. for 30 minutes), so that the cells were stained. After washing at least more than three times, the cells were evaluated by using the flow cytometer (Cytomics FC500, Software: CXP software ver. 2).

[2] = test system: CTL (IFNγ-secreting cells/total CD8 positive cells); test: Evaluation of CTL induction rate, ICS method, after immunization of mice; assay type: in vivo, C57BL/6N mice; conditions: antigen peptide (80 μg); MPL content 0.227 or equivalent; DLPC, deoxycholic acid (160 nmol); subcutaneous once; FIGS. 3 and 4
Description: as §1, with “The dose of the amphipathic substance was 100 nmol/head; the dose of the pH-sensitive compound was 10 to 640 nmol/head; MPL content was 0.0227 to 22.7 nmol/head; and the amount of the antigen was 3.2 to 400 μg/head.” left out
The mice were sacrificed on the seventh day after the last administration and had its spleen harvested. The spleen was given RPMI medium (3.0 mL) containing 10% serum and then treated by the BD Falcon cell strainer. Thus there was obtained a suspension of cells. […] The cells were dispersed into RPMI medium containing 10% serum. The number of cells was counted. Thus there was obtained a dispersion of spleen cells.
For restimulation of the antigen, 10% serum-containing RPMI medium (100 μL) containing OVA peptide (40 μg/mL) was added, followed by incubation for three hours. Then, BD GolgiPlug was added such that its concentration was 0.2 μL/100 μL. Cell culture was performed overnight. In the case where the restimulation was not given, a 10% serum-containing RPMI medium not containing OVA peptide was used.
After washing, the cells were stained with Anti-CD8aPE (at 4° C. for 30 minutes), followed by washing again. Then the cells were permeabilized with Cytofix/Cytoperm. After washing, the cells were stained with Anti-IFNγFITC (at 4° C. for 30 minutes). […] CTL induction rate was calculated in terms of the ratio between the IFNγ secreting cells and the total CD8 positive cells.
It is known that MPL activates innate immune system and functions as an adjuvant even when used alone. It is also known that MPL induces cell-mediated immunity. Thus, a comparison was made as to the induction of cell-mediated immunity between MPL used alone and MPL used in combination with a pH-sensitive carrier in the form of the adjuvant composition. Each of the MPL and the adjuvant composition is administered together with an antigen. […] The above-mentioned solution or dispersion was subcutaneously administered once to the back of C57BL/6N mice, and the CTL induction rate was obtained according to the ICS method. The CTL induction rate is expressed in terms of the ratio of the IFNγ-secreting cells to the total CD8 positive cells in a specific area which is hardly affected by dead cells (IFNγ-secreting cells/total CD8 positive cells).

With SIINFEKL [peptide alone] the “number of IFNγ spots compared with untreated sample” value [1] was “equivalent number of spots as the untreated sample”, the “fluorescence intensity of CD80PE compared with PBS” value (CD80) was “remained unchanged from that in the case where PBS was added” and the CTL induction rate [2] was 0.14%.
